Data reported in US12616674B2, “Anti-fibrotic NEU3 inhibitor compounds and methods of use” (The Texas A&M University System, priority 2019, dated 2026).
Where two headings read alike, the source gives them in different places.

Tests used:
[1] = tested on: NEU3-induced IL-6 production by human PBMC; experiment: NEU3-induced extracellular IL-6 accumulation by human PBMC (IL-6 concentration assay); assay type: cell-based; conditions: NEU3, serum-free medium, 48 hours
Protocol: Human peripheral blood was collected from healthy volunteers who gave written consent and with specific approval from the Texas A&M University human subjects review board. Peripheral blood mononuclear cells (PBMC) were isolated from the blood using Ficoll-Paque density gradient centrifugation (95021-205, GE Healthcare, Cincinnati, OH) following the manufacture's protocol. PBMC were cultured at […] in 96-well flat bottom tissue culture plates (type 62406-081; […] Louis, MO)) in a final volume of 200 μl per well. […] The sialidases were diluted in 100 μl of the same medium the cells were in, and added to 100 μl of cells at 1×10^5 cells/ml to make the total volume in a well 200 μl with 1×10^4 cells/well. The cells were then incubated at 37° C. in a humidified incubator with 5% CO2. The culture supernatants were collected after two or five days and assayed using an IL-6 ELISA kit (430501, Biolegend, San Diego, CA) following the manufacturer's protocol, reading absorbance with a SynergyMX plate reader (BioTek, Winooski, VT). Statistics were analyzed using Prism software (Graphpad, La Jolla, CA). At least three different donors were used for each assay. […] IL-6 in the culture supernatant was then assayed as described above. At least three different donors were used for each assay.

[2] = molecular target: T1, recombinant human sialidase NEU3 (Homo sapiens, UniProt Q9UQ49); experiment: NEU3-catalyzed L-TGF-β1 activation (TGF-β1 release/concentration assay, active TGF-β1 ELISA); assay type: biochemical; conditions: recombinant human NEU3, L-TGF-β1, PBS pH 6.9, 2 hours 37° C.
T1 construct: purchased Origene TP316537
T1 sequence (Q9UQ49 1-428): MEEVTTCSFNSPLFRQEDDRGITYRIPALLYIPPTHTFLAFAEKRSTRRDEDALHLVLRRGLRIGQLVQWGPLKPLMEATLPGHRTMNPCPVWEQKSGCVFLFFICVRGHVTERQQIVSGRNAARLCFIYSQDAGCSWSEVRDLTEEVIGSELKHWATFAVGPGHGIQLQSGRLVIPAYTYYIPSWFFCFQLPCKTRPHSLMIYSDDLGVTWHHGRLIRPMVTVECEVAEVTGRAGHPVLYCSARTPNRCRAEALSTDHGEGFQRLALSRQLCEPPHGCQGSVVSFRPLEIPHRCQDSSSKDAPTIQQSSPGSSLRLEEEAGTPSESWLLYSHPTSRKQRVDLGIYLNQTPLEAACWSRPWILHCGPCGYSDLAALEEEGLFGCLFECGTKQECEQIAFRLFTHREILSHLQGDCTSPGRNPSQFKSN
Protocol: To determine if NEU3 can cause latent transforming growth factor-β1 (L-TGF-β1) to release active TGF-β1, 200 ng/ml recombinant human L-TGF-β1 (299-LT/CF, R&D Systems) was incubated with varying concentrations of recombinant human NEU3 (TP316537, Origene) in a total volume of 100 μl of PBS pH 6.9 in a 96-well microplate (651261, Greiner Bio-one, Monroe, NC). The microplates were covered with aluminum foil and incubated at 37° C. for 2 hours. Following incubation, the reaction mixtures were assayed using a TGF-β1 ELISA kit (DY240, R&D Systems) following the manufacturer's protocol with the exception that the reaction mixtures were not processed for acid treatment, so as to measure only active TGF-β1 and not total TGF-β1. The absorbance was read with a SynergyMX plate reader (BioTek, Winooski, VT).
To determine the ability of compounds 1-31 to inhibit human recombinant NEU3 in-vitro, compounds were dissolved in 5 ml water to 20 mM in 15 ml tubes (89039-664, VWR, Radnor, PA), with the exception that 4-hydroxypyridine-2-carboxylic acid, nicotinic acid, and 4-aminopicolinic acid were dissolved in 50 μl DMSO to 2 M, and this was then added to 4.95 ml of water to make a 20 mM stock, and O-(tetrahydro-2H-pyran-2yl) hydroxylamine and salicylic acid were dissolved in 50 μl methanol to 2 M, and this was then added to 4.95 ml of water to make a 20 mM stock. All stocks were stored at 4° C. and used within 2 weeks of preparation. A 10-fold dilution series of the compounds starting at 2 mM were made in PBS pH 6.9 in 1.7 ml clear microtubes (22-281, Genesee Scientific). 100 μl of diluted compound was added to the well of a 96 well plate and then 50 μl of 400 ng/ml recombinant human sialidase NEU3 (TP316537, Origene) in PBS pH 6.9 was added to each well (50 μl PBS pH 6.9 for the control), and the plate was incubated for 30 minutes at 37° C. 50 μl of 800 ng/ml L-TGF-β1 (299-LT/CF, R&D Systems) in PBS pH 6.9 was then added to the well. The plate was covered with aluminum foil and incubated for 2 hours at 37° C., and released active TGF-β1 was assayed as described above.

[3] = read-out: IC50, inhibits human NEU3 in the TGF-β1 concentration assay
[4] = read-out: IC50, inhibits human NEU3 in the TGF-β1 concentration (release) assay

Row | Structure (SMILES) | IC50 [2, 3] | IC50 [2, 4] | IC50 [1]
1 | NC(=O)c1ccccn1 [Compound 10, picolinamide] | 22 nM |  | > 100000 nM
2 | O=C(O)[C@@H]1CCCCN1 [Compound 13, L-pipecolinic acid] | 0.49 nM |  | 7900 nM
3 | O=C(O)c1ccccc1O [Compound 15, salicylic acid] |  | 1800 nM | 
4 | O=C(O)c1cccc(CO)n1 [Compound 17, 6-(hydroxymethyl) picolinic acid] | 0.05 nM |  | 38 nM
5 | O=C(O)c1ccc([N+](=O)[O-])cn1 [Compound 8, 5-nitro picolinic acid] | 43 nM |  | 79 nM
6 | O=[N+]([O-])c1ccccn1 [Compound 19, 2-Nitropyridine] | 40 nM |  | 20 nM
7 | COc1ccnc(C(=O)O)c1 [Compound 9, 4-methoxy picolinic acid] | 3.2 nM |  | > 100000 nM
8 | O=C(O)c1ccccn1 [Compound 4, picolinic acid] | < 0.01 nM |  | > 100000 nM
9 | Nc1ccc(C(=O)O)nc1 [Compound 18, 5-aminopyridine-2-carboxylic acid] | 40 nM |  | 140 nM
10 | O=C(O)c1cc(C(F)(F)F)ccn1 [Compound 21, 4-(trifluoromethyl) picolinic acid] |  |  | 0.08 nM
11 | O=C(O)C1=CCCCN1 [Compound 12, sodium 1,4,5,6-tetrahydropyridine-2-carboxylate] |  | 120000 nM | 
12 | Nc1ccnc(C(=O)O)c1 [Compound 7, 4-amino picolinic acid] | 4 nM |  | > 100000 nM
13 | O=C(O)c1cccnc1 [Compound 14, nicotinic acid] | 0.011 nM |  | 1500 nM
14 | CN1CCCCC1C(=O)O (stereo not shown) [Compound 20, 1-methyl-2-piperidine carboxylic acid] |  | 500 nM | 30 nM
15 | O=C(O)c1cc(=O)cc[nH]1 [Compound 24, 4-oxo-1,4-dihydropyridine-2-carboxylic acid] |  |  | 8500 nM
16 | NOC1CCCCO1 (stereo not shown) [Compound 16, O-(tetrahydro-2H-pyran-2-yl)-hydroxylamine] |  | 2600 nM | 
17 | O=C(O)c1cc(O)ccn1 [Compound 2, 4-hydroxypyridine-2-carboxylic acid] |  |  | > 300000 nM
18 | CC(=O)Nc1ccc(C(=O)O)nc1 [Compound 3, 5-acetamidopyridine-2-carboxylic acid] | 11 nM |  | 6200 nM

Further lines, with some results ahead:

Row | IC50 [2, 3] | IC50 [2, 4] | Structure (SMILES) | IC50 [1]
19 | < 0.01 nM |  | Cc1cccc(C(=O)O)n1 [Compound 27, 6-methyl-2-pyridinecarboxylic acid] | 4.1 nM
20 | 2.4 nM |  | O=C(O)C1CCCCCN1 (stereo not shown) [Compound 31, azepane-2-carboxylic acid] | 35 nM
21 | 63 nM |  | O=C(O)[C@H]1CCCN1 [Compound 29, D-proline] | 4200 nM
22 |  | 130 nM | Cc1ccnc(C(=O)O)c1 [Compound 22, 4-methylpicolinic acid] | 4700 nM
23 |  | 164000 nM | O=C(O)c1ccc[nH]1 [Compound 30, pyrrole-2-carboxylic acid] | 9500 nM
24 | 570 nM |  | CCOC(=O)C1=C[C@@H](OC(CC)CC)[C@H](NC(C)=O)[C@@H](N)C1 [Compound 28, oseltamivir, reference compound] | 47000 nM
25 | 2 nM |  | NC1CCNC(C(=O)O)C1 (stereo not shown) [Compound 25, 2-piperidinecarboxylic acid, 4-amino] | 0.13 nM
26 | 5 nM |  | Nc1ccncc1C(=O)O [Compound 23, 4-aminonicotinic acid] | 10000 nM
